Results published in patent US8852657B2, “Chromones as therapeutic agents” (Unigen, Inc., priority 2007, dated 2014).
Entries after “also recorded” stand apart in the source; their conditions may differ.

How the values were obtained:
Format in all cases: in vivo, mouse
[1] = tested on: C57BL/6J mice fed high fat diet; test: Intraperitoneal glucose tolerance test, high-fat diet induced model (UP394/UP396); details: day 18; times 60, 90 and 120 minutes; p<0.05; GW1929 5 mg/kg, UP396 100 mg/kg intraperitoneally
Description: A high-fat diet induced animal model was developed and used for evaluation of potential therapeutic effects of chromone extracts. The C57BL/6J is a clinically relevant animal model that can be used in studies on metabolic disorders, pathophysiology of impaired glucose tolerance and for development of novel therapeutic agents (Ahren et al. (2004) Diabetes 53 (Supplement 3):S215-S219; Laakso et al. (2004) Diabetes Care 27:2253-2259; Kahn et al. (2004) Diabetes 53:3274-3285; Scheurink et al. (1998) European J Endo. 139:461-467; Yuan et al. (2002) Diabetes 51:1851-1858; Reitman et al. (2005) Endocrinology 145:3258-3264; Vlassara et al. (2005) Diabetes 54:2314-2319; Cawthome et al. (2002) Molecular and Cellular Proteomics 1:509-516). Methodology of model induction was first explained by Surwit et al. in 1988 (Diabetes, 37:1163-1167). […] Blood glucose, cholesterol, and triglyceride were monitored every week for 12 weeks as described previously. […]
An intraperitoneal glucose tolerance test was conducted using the C57BL/6J mice as described in Example 12 at a dose of 2 g/kg on day 18 of treatment with intraperitoneal administration of GW1929 (5 mg/kg), UP394 (100 mg/kg), UP396 (100 mg/kg) and vehicle. […] Blood glucose levels were measured at time 0, 30, 60, 90, and 120 minutes. […]

[2] = tested on: C57BL/6J mice fed high fat diet; test: Plasma insulin level (ELISA), high-fat diet induced model; details: day 14 of treatment after 8 weeks high-fat diet; P<0.05; GW1929 5 mg/kg, UP394 and UP396 100 mg/kg
Description: A high-fat diet induced animal model was developed and used for evaluation of potential therapeutic effects of chromone extracts. The C57BL/6J is a clinically relevant animal model that can be used in studies on metabolic disorders, pathophysiology of impaired glucose tolerance and for development of novel therapeutic agents (Ahren et al. (2004) Diabetes 53 (Supplement 3):S215-S219; Laakso et al. (2004) Diabetes Care 27:2253-2259; Kahn et al. (2004) Diabetes 53:3274-3285; Scheurink et al. (1998) European J Endo. 139:461-467; Yuan et al. (2002) Diabetes 51:1851-1858; Reitman et al. (2005) Endocrinology 145:3258-3264; Vlassara et al. (2005) Diabetes 54:2314-2319; Cawthome et al. (2002) Molecular and Cellular Proteomics 1:509-516). Methodology of model induction was first explained by Surwit et al. in 1988 (Diabetes, 37:1163-1167). In brief, impaired glucose tolerance and metabolic disorder like symptoms were inflicted successfully in C57BL/6J mice when fed with high fat diets for 8 weeks. Male C57BL/6J mice were purchased from Jackson Laboratories (Bar Harbor, Me.) at age of 6 weeks. One week after acclimation period, animals were divided into groups (n=5 or 6) and provided with high fat (45% kcal) rodent pellet (Research diets, Inc., New Brunswick, N.J.) and water ad libitum for 12 weeks except at times of glucose and insulin tolerance tests at which feed was withheld for three hours. Animals were maintained in a temperature controlled room (22.2° C.) on a 12 hour light-dark cycle. Blood glucose, cholesterol, and triglyceride were monitored every week for 12 weeks as described previously. Body weight measurement was taken once a week for 12 weeks.
Once induction of the metabolic disorders was confirmed by weekly monitoring of selected parameters (glucose, triglyceride and cholesterol) i.e. on the 8th week, daily intraperitoneal treatment was initiated and maintained for 4 weeks. […]
The plasma insulin levels were measured with an ELISA kit for insulin (Crystal Chem—Chicago, Ill.). […]

[3] = tested on: high fat diet induced C57BL/6J mice; test: Intraperitoneal glucose tolerance test, UP780 dose-range study; details: week 3 of daily oral treatment; 30, 60 and 90 minutes; UP780 200 mg/kg, GW1929 5 mg/kg
Experimental: Once an induction of the disease on animals after 8 weeks of high fat diets was confirmed by monitoring of selected parameters, daily oral treatment was initiated. On each day, the test articles and the positive control GW1929 (Tocris Bioscience, Ellisville, Mo., Batch #2A/58705) were dissolved in 0.5% methylcellulose (Sigma, St. Louise Mo., Lot#116H0857) and delivered at an oral dose of 100, 200 and 400 mg/kg of UP780 (Lot # L1806QMAW-01); 400 mg/kg of Qmatrix® Aloe vera gel powder (QM400, Lot# G6319103-L3) as well as 5 mg/kg of GW1929. As GW1929 was not completely solublized in methylcellulose, it was first dissolved in DMSO (Sigma, St. Louis, Mo., Batch#064K0067). The final concentration of test compounds, including the vehicle, was then adjusted to contain 5% DMSO before drug administration. The carrier vehicle treated animals received 0.5% methylcellulose only. No detectable sign of irritation was observed after each drug or vehicle administration. […]
An intraperitoneal glucose tolerance test was conducted on day 0 (baseline), weeks 3, and 9 after onset of treatment. […] Blood glucose levels were determined at time 0 (before glucose injection), 30, 60, 90, and 120 minutes post glucose delivery. […] Blood glucose levels were determined at time 0 (before insulin injection), 30, 60, 90, and 120 minutes after insulin administration. […]

[4] = Feed consumption, UP780 dose-range study; details: GW1929 5 mg/kg, Qmatrix 400 mg/kg, UP780 100, 200 and 400 mg/kg
Experimental: Once an induction of the disease on animals after 8 weeks of high fat diets was confirmed by monitoring of selected parameters, daily oral treatment was initiated. On each day, the test articles and the positive control GW1929 (Tocris Bioscience, Ellisville, Mo., Batch #2A/58705) were dissolved in 0.5% methylcellulose (Sigma, St. Louise Mo., Lot#116H0857) and delivered at an oral dose of 100, 200 and 400 mg/kg of UP780 (Lot # L1806QMAW-01); 400 mg/kg of Qmatrix® Aloe vera gel powder (QM400, Lot# G6319103-L3) as well as 5 mg/kg of GW1929. As GW1929 was not completely solublized in methylcellulose, it was first dissolved in DMSO (Sigma, St. Louis, Mo., Batch#064K0067). The final concentration of test compounds, including the vehicle, was then adjusted to contain 5% DMSO before drug administration. The carrier vehicle treated animals received 0.5% methylcellulose only. No detectable sign of irritation was observed after each drug or vehicle administration.
As described on Example 12, male C57BL/6J mice were purchased from Jackson Laboratories (Bar Harbor, Me.) at 6 weeks of age. […]
Three or four male C57BL/6J mice were housed in a mouse cage that had sections for feed and water. Feed intake was determined daily by measuring the difference between previously weighed high fat pellets value and what was left on the given day. […]

**Q.** With CN(CCOc1ccc(C[C@H](Nc2ccccc2C(=O)c2ccccc2)C(=O)O)cc1)c1ccccn1 [GW1929, N-(2-Benzoylphenyl)-O-[2-(methyl-2-pyridinylamino)ethyl]-L-tyrosine] as the compound, how does the “glucose utilization in intraperitoneal glucose tolerance test compared to vehicle” value [1] read?
**A.** The value was “Significant glucose utilization”.

**Q.** What about the “plasma insulin levels compared to vehicle” value [2] of the same compound?
**A.** The value was “decreased the insulin level significantly; also recorded: Significant decreases in plasma insulin levels”.

**Q.** And the “glucose clearance in intraperitoneal glucose tolerance test vs vehicle” value [3]?
**A.** The value was “statistically significant glucose clearance”.

**Q.** And the “feed consumption difference between groups” value [4]?
**A.** Its value is “no significant body weight gain or feed consumption differences”.
